We go through 2 compounds from patent publication US20180273528A1 (LES LABORATOIRES SERVIER, priority 2015, published 2018).

A value given as a limit tells only on which side of the number the result lay.

The target of assay [1] is T1, His-TEV-DYRK1A Kinase domain (aa127-485) (Homo sapiens, UniProt Q13627).
T1 construct: His-TEV-DYRK1A Kinase domain (aa127-485); His tag (N); TEV protease cleavage site (N)
As to the kind of experiment: Kinase ADP assay (ADP Hunter), DYRK1A kinase domain. The format is biochemical. The note with it: 20 μM ATP. In a few lines: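 Readout is ADP Hunter fluorescence at 590 nm, developed 20 min at 30 °C after the kinase step. That step ran 10 min at 30 °C in Hepes pH 7.4 (10 mM MgCl2, 1 mM EGTA, 0.02% Tween20) containing 20 μM ATP, 40 μM peptide and 20 nM enzyme plus compound.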

In the next assay the target is T2, DYRK1B (Homo sapiens, UniProt Q9Y463).
T2 construct: full-length human kinases from Carna Biosciences; purchased Carna Biosciences 04-131
T2 sequence (Q9Y463 whole entry): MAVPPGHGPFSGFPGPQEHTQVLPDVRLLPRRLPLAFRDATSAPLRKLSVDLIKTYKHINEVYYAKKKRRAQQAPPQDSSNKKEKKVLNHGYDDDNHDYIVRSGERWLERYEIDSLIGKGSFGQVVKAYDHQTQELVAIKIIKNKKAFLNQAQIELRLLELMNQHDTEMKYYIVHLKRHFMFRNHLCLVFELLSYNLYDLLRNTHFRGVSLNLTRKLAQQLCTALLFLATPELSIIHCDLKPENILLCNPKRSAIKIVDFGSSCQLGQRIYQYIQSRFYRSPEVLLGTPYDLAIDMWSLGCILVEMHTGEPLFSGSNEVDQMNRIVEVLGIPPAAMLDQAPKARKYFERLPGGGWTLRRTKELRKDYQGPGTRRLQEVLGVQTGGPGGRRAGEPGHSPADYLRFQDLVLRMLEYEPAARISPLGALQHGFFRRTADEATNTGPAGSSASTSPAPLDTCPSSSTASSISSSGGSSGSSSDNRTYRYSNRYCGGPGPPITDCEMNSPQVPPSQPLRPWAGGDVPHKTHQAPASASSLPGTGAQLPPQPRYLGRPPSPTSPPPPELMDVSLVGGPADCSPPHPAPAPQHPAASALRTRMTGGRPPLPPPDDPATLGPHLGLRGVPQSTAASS
As to the kind of experiment: Kinase TR-FRET assay, DYRK1B. The note with it: full-length human kinase, 10 μM ATP. The format is biochemical. In a few lines:
(§1)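 Compounds tested at 0.1 nM to 30 μM in reaction buffer; reaction stopped with 10 mM EDTA. Phosphorylated MBP detected with 1 nM Europium-labelled anti-phospho-Thr232 antibody by TR-FRET.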
(TR-FRET usually uses a lanthanide donor and a delayed reading to cut background.)

Another assay concerns the target T3, CDK9 (Homo sapiens, UniProt P50750).
T3 construct: full-length human kinases from Carna Biosciences; purchased Carna Biosciences 04-110
Description: Kinase TR-FRET assay, CDK9. Type of assay: biochemical. The note with it: full-length human kinase, 10 μM ATP. In a few lines: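 Full-length human CDK9 (0.9 ng/μl) incubated 100 min at room temperature with 10 μM ATP, 100 nM ULight-MBP peptide and compound (0.1 nM–30 μM) in 50 mM HEPES pH 7.4, 1 mM EGTA, 10 mM MgCl2, 2 mM DTT, 0.01% Tween20. Stopped with 10 mM EDTA, then 1 nM Eu-anti-phospho-Thr232 MBP antibody added for 1 h. TR-FRET read at 665/620 nm with 340 nm excitation.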

For assay [2], the target named is T4, DYRK1A (Homo sapiens, UniProt Q13627). Description: Kinase TR-FRET assay, DYRK1A. The format is biochemical. The arrangement: full-length, wild-type human DYRK1A (NM_001396) with an HA tag; expressed in transfected cells; host or cells: human U2-OS osteosarcoma cells, transient transfection of a pcDNA3.1 plasmid. The following applies: full-length human kinase, 10 μM ATP. The method, boiled down: as §1

The next assay concerns the target T5, CLK1 (Homo sapiens, UniProt P49759).
T5 construct: full-length human kinases from Carna Biosciences; purchased Carna Biosciences 04-126
As to the kind of experiment: Kinase TR-FRET assay, CLK1. The format is biochemical. The following applies: full-length human kinase, 10 μM ATP. The method, boiled down:
as §1

The target in assay [3] is T4, DYRK1A. Description: Cellular DYRK1 autophosphorylation assay in U2-OS cells. The format is cell-based. More on the design: full-length, wild-type human DYRK1A (NM_001396) with an HA tag; expressed in transfected cells; host or cells: human U2-OS osteosarcoma cells, transient transfection of a pcDNA3.1 plasmid. The note with it: U2-OS cells transfected with HA-tagged human DYRK1A, 5 hours exposure; read-out: IC50 (μM) P-Ser520-Dyrk1A -Cell assay. The method, boiled down: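 IC50 derived from dose-response curves of phospho-Ser520-DYRK1A (blots normalised to total DYRK1A), quantified by either immunoblotting with chemiluminescence or Mesoscale electrochemiluminescent ELISA. Compounds applied to U2-OS cells across several concentrations for 5 hours.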

T5 sequence (P49759 1-526 isoform P49759-3): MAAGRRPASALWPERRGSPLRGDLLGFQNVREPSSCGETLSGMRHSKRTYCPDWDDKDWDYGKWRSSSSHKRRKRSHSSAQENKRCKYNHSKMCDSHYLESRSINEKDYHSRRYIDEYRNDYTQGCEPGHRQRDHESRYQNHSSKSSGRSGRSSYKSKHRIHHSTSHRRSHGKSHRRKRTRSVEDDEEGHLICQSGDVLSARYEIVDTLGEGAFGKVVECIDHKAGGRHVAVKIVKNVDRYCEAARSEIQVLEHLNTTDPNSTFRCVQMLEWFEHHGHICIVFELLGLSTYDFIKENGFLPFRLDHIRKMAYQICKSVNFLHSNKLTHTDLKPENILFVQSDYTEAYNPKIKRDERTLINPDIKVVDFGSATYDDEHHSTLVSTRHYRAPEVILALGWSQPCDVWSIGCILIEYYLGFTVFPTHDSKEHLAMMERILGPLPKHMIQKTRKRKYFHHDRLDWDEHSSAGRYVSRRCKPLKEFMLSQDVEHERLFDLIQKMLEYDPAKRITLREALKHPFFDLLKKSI
T3 sequence (P50750 whole entry): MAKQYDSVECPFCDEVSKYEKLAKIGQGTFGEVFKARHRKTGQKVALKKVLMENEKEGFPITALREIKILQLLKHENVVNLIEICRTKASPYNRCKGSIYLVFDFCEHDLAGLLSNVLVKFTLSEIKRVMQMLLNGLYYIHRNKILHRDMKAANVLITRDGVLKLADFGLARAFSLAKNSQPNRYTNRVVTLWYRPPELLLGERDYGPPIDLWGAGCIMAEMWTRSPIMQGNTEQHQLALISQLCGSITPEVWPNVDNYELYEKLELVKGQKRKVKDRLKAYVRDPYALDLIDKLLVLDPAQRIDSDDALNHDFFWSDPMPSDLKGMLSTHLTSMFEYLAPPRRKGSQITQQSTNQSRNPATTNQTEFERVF
T3 sequence (O60563 whole entry partner): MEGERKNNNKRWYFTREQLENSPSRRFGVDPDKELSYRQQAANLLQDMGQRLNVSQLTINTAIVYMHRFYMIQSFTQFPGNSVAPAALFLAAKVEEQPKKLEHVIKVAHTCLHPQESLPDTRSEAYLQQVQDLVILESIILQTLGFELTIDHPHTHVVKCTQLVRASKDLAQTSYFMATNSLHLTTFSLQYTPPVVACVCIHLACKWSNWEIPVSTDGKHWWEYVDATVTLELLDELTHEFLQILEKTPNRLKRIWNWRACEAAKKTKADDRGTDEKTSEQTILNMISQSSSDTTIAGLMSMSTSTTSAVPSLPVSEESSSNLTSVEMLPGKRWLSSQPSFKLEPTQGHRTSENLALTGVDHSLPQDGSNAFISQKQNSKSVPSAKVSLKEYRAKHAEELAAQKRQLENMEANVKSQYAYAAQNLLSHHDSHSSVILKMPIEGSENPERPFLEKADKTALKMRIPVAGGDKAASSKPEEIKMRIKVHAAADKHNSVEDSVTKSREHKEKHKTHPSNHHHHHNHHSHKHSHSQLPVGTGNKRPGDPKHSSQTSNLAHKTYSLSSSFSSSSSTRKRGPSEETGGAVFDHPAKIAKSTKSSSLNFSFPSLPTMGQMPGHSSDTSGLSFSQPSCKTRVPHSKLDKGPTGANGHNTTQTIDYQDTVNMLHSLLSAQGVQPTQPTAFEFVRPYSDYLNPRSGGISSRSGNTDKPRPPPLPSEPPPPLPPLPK

Usually IC50 stands for the concentration needed to halve the response being measured. For `N#Cc1nc2ccc(-c3cc(N)nc(N)c3)nc2n1CCOc1ccccc1` [Example 222, 5-(2,6-diaminopyridin-4-yl)-3-(2-phenoxyethyl)-3H-imidazo[4,5-b]pyridine-2-carbonitrile], the IC50 in assay [1] was 0.023 µM; on DYRK1B, 0.031 µM; at CDK9 it was more than 3 µM; against DYRK1A [2], 0.018 µM; against CLK1, 0.062 µM; at DYRK1A [3] it was 0.244 µM.
On to `N#Cc1nc2ccc(-c3cc(N)nc(N)c3)nc2n1CCCC(F)(F)F` [Example 226, 5-(2,6-diaminopyridin-4-yl)-3-(4,4,4-trifluorobutyl)-3H-imidazo[4,5-b]pyridine-2-carbonitrile], for which the IC50 in assay [1] worked out at 0.013 µM; against DYRK1B, 0.01 µM; against CDK9, 0.713 µM; against DYRK1A [2], 0.005 µM; on CLK1, 0.023 µM; on DYRK1A [3], 0.148 µM.
